Laboratory results from patent US10351594B2, “Process for preparing compounds having triple activities of thrombolysis, antithrombosis, and radical scavenging” (Shanghai Lumosa Therapeutics Co., Ltd., priority 2013, dated 2019).
Entries after “also recorded” stand apart in the source; their conditions may differ. Marks after values point to notes of the source that are not given here.

Tests used:
stroke rats = experiment: Therapeutic effect in stroke rats (microthrombus injected into the brain, treated at once): Zealonga score and TTC infarction volume; assay type: in vivo, SD male rats; conditions: for Neural function scores: Zealonga method, 24 hours after awake, n = 9; for Percentage of infarction volume: cerebral infarction, TTC, n = 7
Experimental: SD male rats (280-300 g) were randomly divided to UK positive control group at a dose of 20000 IU/kg, blank control group with normal saline solution, compound control group with PAK at a dose of 5 μmol/kg, and compound 5Ak group at a dose of 1 μmol/kg (high), 0.1 μmol/kg (medium), and 0.01 μmol/kg (low). A 10% chloral hydrate solution (400 mg/kg) was injected intraperitoneally into rats for anesthesia. […] The 10 μl blood drawn was placed in a 1 mL EP vial and kept at RT for 30 min to allow the coagulation of blood and then transferred into a −20° C. refrigerator for 1 hour to allow the formation of solid coagulation. 1 hour later, the blood clots were taken out, 1 mL normal saline was added therein, and then the blood clots were broken into relatively uniform microthrombus by a steel spatula. The microthrombus suspension was then transferred into a 1 mL injector for use. […] The common jugular vein was separated, and then injected with UK at the dose of 20000 IU/kg, normal saline solution, or compound 5Ak at the dose of 1 μmol/kg. The vein was ligated. 3 drops of penicillin was dropped on the wound. The wound was sewed, and animals were waited for awake.
24 hours after the rats were awake, the degree of damage in neural function was evaluated by the Zealonga method. […] The evaluation results were statistically analyzed and subjected to t-test.
After the rats were awake for 24 hours and assessed for their degree of damage in neural function by Zealonga method, they were anesthetized with urethane followed by immediate decapitation and removal of the brain. Brain tissues were kept in a −20° C. refrigerator for 2 hours, and coronal sections of about 2 mm were successively sliced from the prefrontal end for a total of 5 sections and then placed into a 2% TTC solution to incubate without light at 37° C. for 30 min. The color change in brain sections was observed: normal brain tissues were stained red by TTC, while ischemic brain tissues appeared in white. Photographs were taken by using a digital camera and processed with image statistics software, and the volume of infarction in brain tissues and the area of normal brain tissues in the coronal sections were calculated. The ratio of the cerebral infarction volume of each group was statistically calculated and subject to t-test.

[1] = system: formation of thrombus (rat arteriovenous bypass); experiment: Antithrombotic activity via intravenous administration, rat arteriovenous bypass cannula with thread; assay type: in vivo, male SD rats; conditions: n = 10

Structure (SMILES): C[C@H](NC(=O)[C@@H]1CCCN1)C(=O)N[C@@H](CCCCN)C(=O)NCCCC[C@H](NC(=O)[C@@H]1Cc2cc(O)c(O)cc2C(C)(C)N1)C(=O)O [Compound 5Ak, 3S-6,7-dihydroxy-1,1-dimethyl-1,2,3,4-tetrahydro-isoquinoline-3-acyl-Lys(Pro-Ala-Lys)]
- Therapeutic effect in stroke rats, result in words (stroke rats; 5Ak 1, 0.1, 0.01 μmol/kg): effectively prevent the brain ischemia rats from occurrence of dyskinesia and cerebral infarction; also recorded: dose dependent
- Neural function scores (stroke rats; 5Ak 0.01 μmol/kg): 2.30 ± 0.95^c
- Neural function scores (stroke rats; 5Ak 0.1 μmol/kg): 1.40 ± 1.07^b
- Neural function scores (stroke rats; 5Ak 1 μmol/kg): 1.10 ± 0.74^a
- Percentage of infarction volume (stroke rats; 5Ak 0.01 μmol/kg): 18.05 ± 5.77^c %
- Percentage of infarction volume (stroke rats; 5Ak 0.1 μmol/kg): 9.88 ± 2.52^b %
- Percentage of infarction volume (stroke rats; 5Ak 1 μmol/kg): 3.44 ± 1.99^a %
- wet weight of thrombus ([1]; Table 4, 5Ak 0.001 nmol/kg i.v.): 61.91 ± 3.27^c mg
- wet weight of thrombus ([1]; Table 4, 5Ak 0.01 nmol/kg i.v.): 57.34 ± 3.73^b mg
